Assay results reported in patent US12612368B2 (Remedy Plan, Inc., priority 2019, dated 2026).
Where two headings read alike, the source gives them in different places.

Tests used:
MV-4-11 cells = assay: Cell viability in MV-4-11 cells (CellTiter Glo2); assay type: cell-based; details: Homo sapiens, MV4-11, 96 h, 8-point dose response, 4 days
Procedure: Approximately 10,000 MV-4-11 cells per well of a 96-well plate were treated with DMSO (no drug control) or each compound in Tables E1 and E2 in an 8-point dose response for 4 days, Cell viability was measured using CellTiter Glo2. The ICse of each compound was determined using CDD Vault.

NAMPT = molecular target: T1, NAMPT (Homo sapiens, UniProt P43490); assay: NAMPT Activity Assay (Abcam #ab221819); assay type: biochemical; details: purified NAMPT, two-step reaction, OD450 nm; percent inhibition vs no drug; compound concentration not stated
T1 construct: purchased Abcam ab221819
T1 sequence (P43490 whole entry): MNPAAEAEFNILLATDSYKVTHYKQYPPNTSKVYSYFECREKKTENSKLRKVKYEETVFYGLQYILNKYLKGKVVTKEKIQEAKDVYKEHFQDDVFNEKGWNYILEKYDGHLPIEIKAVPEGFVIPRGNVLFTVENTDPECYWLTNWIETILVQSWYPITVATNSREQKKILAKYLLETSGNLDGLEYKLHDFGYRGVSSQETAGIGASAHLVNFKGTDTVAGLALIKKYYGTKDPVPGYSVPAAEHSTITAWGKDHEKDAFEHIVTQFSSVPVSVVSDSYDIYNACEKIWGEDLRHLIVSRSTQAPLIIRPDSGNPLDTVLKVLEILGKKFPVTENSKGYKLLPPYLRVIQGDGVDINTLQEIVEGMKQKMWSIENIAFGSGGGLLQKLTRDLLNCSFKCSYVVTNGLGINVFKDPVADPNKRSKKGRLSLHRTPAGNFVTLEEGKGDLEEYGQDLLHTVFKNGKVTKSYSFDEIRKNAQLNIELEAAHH

[1] = CellTiter Glo2 (Table E2), read-out: MV-4-11 Cell Viability, MV-4-11 IC50
[2] = CellTiter Glo2 (Table E1), read-out: MV-4-11 IC50

IC50 (MV-4-11 cells; [1]) | NAMPT Inhibition Code (NAMPT) | IC50 (MV-4-11 cells; [2]) | Compound
104 nM | A (A = <33% inhibition) | – | CCC(=O)N(C)c1ccc(-c2ccc(C(=O)NCc3ccc(C)nc3C)cc2)cc1Cl [Compound I-481, 4-[3-chloro-4-[methyl(propanoyl)amino]phenyl]-N-[(2,6-dimethyl-3-pyridyl)methyl]benzamide]
150 nM | B (B = ≥33 to <66% inhibition) | – | CC(=O)N(C)c1ccc(-c2ccc(C(=O)NCc3cccnc3)cn2)cc1C(F)(F)F [Compound I-658, 6-[4-[Acetyl(methyl)amino]-3-(trifluoromethyl)phenyl]-N-(3-pyridylmethyl)pyridine-3-carboxamide]
137 nM | C (C = ≥66% inhibition) | – | CC(=O)N(c1ccc(-c2ccc(C(=O)NCc3cccnc3)cc2)cc1F)C(C)C [Compound I-630, 4-[4-[Acetyl(isopropyl)amino]-3-fluoro-phenyl]-N-(3-pyridylmethyl)benzamide]
– | A (A = <33% inhibition) | > 30000 nM | CCC(=O)N(C)c1ccc(-c2ccc(C(=O)NCc3ccc(F)nc3)cn2)cc1 [Compound I-393, N-[(6-fluoro-3-pyridyl)methyl]-6-[4-[methyl(propanoyl)amino]phenyl]pyridine-3-carboxamide]
– | B (B = ≥33 to <66% inhibition) | 125 nM | CCCCN(C(C)=O)c1ccc(-c2ccc(C(=O)NCc3cccnc3)cn2)cc1 [Compound I-411, 6-[4-[acetyl(butyl)amino]phenyl]-N-(3-pyridylmethyl)pyridine-3-carboxamide]
2700 nM | A (A = <33% inhibition) | – | CCOC(=O)NCCN(C(C)=O)c1ccc(-c2ccc(C(=O)NCc3cccnc3C)cn2)cc1C [Compound I-486, Ethyl N-[2-[N-acetyl-2-methyl-4-[5-[(2-methyl-3-pyridyl)methylcarbamoyl]-2-pyridyl]anilino]ethyl]carbamate]
> 30000 nM | A (A = <33% inhibition) | – | CC(=O)N(C)c1ccc(-c2ccc(C(=O)NCc3cccnc3C)cn2)cc1C#N [Compound I-456, 6-[4-[acetyl(methyl)amino]-3-cyano-phenyl]-N-[(2-methyl-3-pyridyl)methyl]pyridine-3-carboxamide]
– | A (A = <33% inhibition) | 3170 nM | CCOC(=O)N(C)c1ccc(-c2ccc(C(=O)NCc3cccnc3)cn2)cc1 [Compound I-389, ethyl N-methyl-N-[4-[5-(3-pyridylmethylcarbamoyl)-2-pyridyl]phenyl]carbamate]
6770 nM | A (A = <33% inhibition) | – | Cc1cc(-c2ccc(C(=O)NCc3cccnc3C)cn2)ccc1N(C)C(=O)CC#N [Compound I-492, 6-[4-[(2-cyanoacetyl)-methyl-amino]-3-methyl-phenyl]-N-[(2-methyl-3-pyridyl)methyl]pyridine-3-carboxamide]
4380 nM | A (A = <33% inhibition) | – | CC(=O)N(c1ccc(-c2ccc(C(=O)NCc3cccnc3C)cn2)cc1C)C(C)C [Compound I-512, 6-[4-[Acetyl(isopropyl)amino]-3-methyl-phenyl]-N-[(2-methyl-3-pyridyl)methyl]pyridine-3-carboxamide]
9850 nM | A (A = <33% inhibition) | – | COC(=O)c1cc(-c2ccc(C(=O)NCc3cccnc3C)cn2)ccc1N(C)C(C)=O [Compound I-457, methyl 2-[acetyl(methyl)amino]-5-[5-[(2-methyl-3-pyridyl)methylcarbamoyl]-2-pyridyl]benzoate]
37 nM | B (B = ≥33 to <66% inhibition) | – | CC(=O)N(CC1COC1)c1ccc(-c2ccc(C(=O)NCc3cccnc3)cn2)cc1C [Compound I-610, 6-[4-[Acetyl(oxetan-3-ylmethyl)amino]-3-methyl-phenyl]-N-(3-pyridylmethyl)pyridine-3-carboxamide]
– | C (C = ≥66% inhibition) | 941 nM | CCC(=O)N(C)c1ccc(-c2ccc(C(=O)Nc3cccnc3)cn2)cc1 [Compound I-353, 6-[4-[methyl(propanoyl)amino]phenyl]-N-(3-pyridyl)pyridine-3-carboxamide]
– | B (B = ≥33 to <66% inhibition) | 32 nM | CC(=O)N(CC(C)C)c1ccc(-c2ccc(C(=O)NCc3cccnc3)cn2)cc1 [Compound I-404]
2.91 nM | C (C = ≥66% inhibition) | – | CC(=O)N(CC1CC1)c1ccc(-c2ccc(C(=O)NCc3ccc(N)nc3)cn2)cc1Cl [Compound I-677, 6-[4-[Acetyl(cyclopropylmethyl)amino]-3-chloro-phenyl]-N-[(6-amino-3-pyridyl)methyl]pyridine-3-carboxamide]
– | A (A = <33% inhibition) | 105 nM | CCC(=O)N(CCNC(=O)OC(C)(C)C)c1ccc(-c2ccc(C(=O)NCc3cccnc3)cc2)cc1 [Compound I-417, tert-butyl N-[2-[N-propanoyl-4-[4-(3-pyridylmethylcarbamoyl)phenyl]anilino]ethyl]carbamate]

IC50 (MV-4-11 cells; [1]) | NAMPT Inhibition Code (NAMPT) | IC50 (MV-4-11 cells; [2]) | Compound
10.7 nM | C (C = ≥66% inhibition) | – | CC(=O)N(c1ccc(-c2ccc(C(=O)NCc3cccnc3)cn2)cc1C)C(C)C [Compound I-495, 6-[4-[Acetyl(isopropyl)amino]-3-methyl-phenyl]-N-(3-pyridylmethyl)pyridine-3-carboxamide]
13.5 nM | C (C = ≥66% inhibition) | – | CC(=O)N(CC1CC1)c1ccc(-c2ccc(C(=O)NCc3cccnc3)cn2)cc1C [Compound I-609, 6-[4-[Acetyl(cyclopropylmethyl)amino]-3-methyl-phenyl]-N-(3-pyridylmethyl)pyridine-3-carboxamide]
1700 nM | B (B = ≥33 to <66% inhibition) | – | CC(=O)N(C)c1ccc(-c2ccc(C(=O)NCc3cccnc3)cn2)cc1C#N [Compound I-663, 6-[4-[Acetyl(methyl)amino]-3-cyano-phenyl]-N-(3-pyridylmethyl)pyridine-3-carboxamide]
4350 nM | A (A = <33% inhibition) | – | COC(=O)NCCN(C(C)=O)c1ccc(-c2ccc(C(=O)NCc3cccnc3C)cn2)cc1C [Compound I-487, Methyl N-[2-[N-acetyl-2-methyl-4-[5-[(2-methyl-3-pyridyl)methylcarbamoyl]-2-pyridyl]anilino]ethyl]carbamate]
– | A (A = <33% inhibition) | 1820 nM | CCN(C(C)=O)c1ccc(-c2ccc(C(=O)NCc3cccnc3C)cn2)cc1Cl [Compound I-444, 6-[4-[acetyl(ethyl)amino]-3-chloro-phenyl]-N-[(2-methyl-3-pyridyl)methyl]pyridine-3-carboxamide]
– | A (A = <33% inhibition) | 2170 nM | CCCN(C(C)=O)c1ccc(-c2ccc(C(=O)NCc3cccnc3C)cn2)cc1C [Compound I-446, 6-[4-[acetyl(propyl)amino]-3-methyl-phenyl]-N-[(2-methyl-3-pyridyl)methyl]pyridine-3-carboxamide]
1580 nM | B (B = ≥33 to <66% inhibition) | – | CC(=O)N(CC(F)F)c1ccc(-c2ccc(C(=O)NCc3cccnc3)cn2)cc1 [Compound I-631, 6-[4-[Acetyl(2,2-difluoroethyl)amino]phenyl]-N-(3-pyridylmethyl)pyridine-3-carboxamide]
2820 nM | A (A = <33% inhibition) | – | CC(=O)N(CC1CC1)c1ccc(-c2ccc(C(=O)NCc3cccnc3C)cn2)cc1C [Compound I-488, 6-[4-[Acetyl(cyclopropylmethyl)amino]-3-methyl-phenyl]-N-[(2-methyl-3-pyridyl)methyl]pyridine-3-carboxamide]
3470 nM | A (A = <33% inhibition) | – | CC(=O)N(C)c1ccc(-c2ccc(C(=O)NCc3cccnc3C)cn2)cc1C(F)(F)F [Compound I-455, 6-[4-[acetyl(methyl)amino]-3-(trifluoromethyl)phenyl]-N-[(2-methyl-3-pyridyl)methyl]pyridine-3-carboxamide]
3.28 nM | C (C = ≥66% inhibition) | – | CC(=O)N(CC(C)C)c1ccc(-c2ccc(C(=O)NCc3cccnc3)cn2)cc1Cl [Compound I-599, 6-[4-[Acetyl(isobutyl)amino]-3-chloro-phenyl]-N-(3-pyridylmethyl)pyridine-3-carboxamide]
> 30000 nM | A (A = <33% inhibition) | – | CC(=O)Nc1ccc(-c2ccc(C(=O)N(C)Cc3cccnc3C)cn2)cc1C#N [Compound I-483, 6-(4-Acetamido-3-cyano-phenyl)-N-methyl-N-[(2-methyl-3-pyridyl)methyl]pyridine-3-carboxamide]
2.39 nM | C (C = ≥66% inhibition) | – | CC(=O)N(c1ccc(-c2ccc(C(=O)NCc3cccnc3)cn2)cc1Cl)C(C)C [Compound I-596, 6-[4-[Acetyl(isopropyl)amino]-3-chloro-phenyl]-N-(3-pyridylmethyl)pyridine-3-carboxamide]
3990 nM | A (A = <33% inhibition) | – | CC(=O)N(CCC(F)(F)F)c1ccc(-c2ccc(C(=O)NCc3cccnc3C)cn2)cc1 [Compound I-499, 6-[4-[Acetyl(3,3,3-trifluoropropyl)amino]phenyl]-N-[(2-methyl-3-pyridyl)methyl]pyridine-3-carboxamide]
3.01 nM | C (C = ≥66% inhibition) | – | CC(C)N(C(=O)C(F)F)c1ccc(-c2ccc(C(=O)NCc3cccnc3)cn2)cc1Cl [Compound I-611, 6-[3-chloro-4-[(2,2-difluoroacetyl)-isopropyl-amino]phenyl]-N-(3-pyridylmethyl)pyridine-3-carboxamide]
– | B (B = ≥33 to <66% inhibition) | 119 nM | CCCN(C(=O)CC)c1ccc(-c2ccc(C(=O)NCc3cccnc3)cn2)cc1 [Compound I-410, 6-[4-[propanoyl(propyl)amino]phenyl]-N-(3-pyridylmethyl)pyridine-3-carboxamide]
